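48-hour exposure; five concentrations; linearly interpolated endpoints. The concentration for 50% growth inhibition is given as GI50. TGI: total growth inhibition.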
What was measured:
Assay in all cases: NCI anticancer screen, dose series, 48 h
[1] = test system: 786-0 renal
[2] = test system: A498 renal
[3] = test system: A549 NSCLC
[4] = test system: ACHN renal
[5] = test system: BT-549 breast
[6] = test system: CAKI-1 renal
[7] = test system: CCRF-CEM leukemia
[8] = test system: COLO 205 colon
[9] = test system: DU-145 prostate
[10] = test system: EKVX NSCLC
[11] = test system: HCC-2998 colon
[12] = test system: HCT-116 colon
[13] = test system: HCT-15 colon
[14] = test system: HL-60(TB) leukemia
[15] = test system: HOP-62 NSCLC
[16] = test system: HOP-92 NSCLC
[17] = test system: HS 578T breast
[18] = test system: HT29 colon
[19] = test system: IGROV1 ovarian
[20] = test system: K-562 leukemia
[21] = test system: KM12 colon
[22] = test system: LOX IMVI melanoma
[23] = test system: M14 melanoma
[24] = test system: MALME-3M melanoma
[25] = test system: MCF7 breast
[26] = test system: MDA-MB-231 breast
[27] = test system: MDA-MB-435
[28] = test system: MDA-MB-468 breast
[29] = test system: MOLT-4 leukemia
[30] = test system: NCI-H226 lung
[31] = test system: NCI-H23 lung
[32] = test system: NCI-H460 lung
[33] = test system: NCI-H522 lung
[34] = test system: OVCAR-3 ovarian
[35] = test system: OVCAR-4 ovarian
[36] = test system: OVCAR-5 ovarian
[37] = test system: OVCAR-8 ovarian
[38] = test system: PC-3 prostate
[39] = test system: RPMI-8226 leukemia
[40] = test system: RXF 393 renal
[41] = test system: SF-268 CNS
[42] = test system: SF-295 CNS
[43] = test system: SF-539 CNS
[44] = test system: SK-MEL-2 melanoma
[45] = test system: SK-MEL-28 melanoma
[46] = test system: SK-MEL-5 melanoma
[47] = test system: SK-OV-3 ovarian
[48] = test system: SN12C renal
[49] = test system: SNB-19 CNS
[50] = test system: SR leukemia
[51] = test system: SW-620 colon
[52] = test system: T-47D breast
[53] = test system: TK-10 renal
[54] = test system: U251 CNS
[55] = test system: UACC-257 melanoma
[56] = test system: UACC-62 melanoma
[57] = test system: UO-31 renal

CN(C)c1nc(NCCNS(=O)(=O)c2ccc(C3=Nc4c(N)nc(N)nc4NC(c4ccc(C(F)(F)F)cc4)C3)cc2)nc(N2CCOCC2)n1 (centres undefined)
GI50 [1]: 20.8 µM
TGI [1]: > 100 µM
GI50 [2]: 24.1 µM
TGI [2]: 82.9 µM
GI50 [3]: 51.3 µM
TGI [3]: > 100 µM
GI50 [4]: 64.4 µM
TGI [4]: > 100 µM
GI50 [5]: 13.8 µM
TGI [5]: 31.8 µM
GI50 [6]: 25.9 µM
TGI [6]: > 100 µM
GI50 [7]: 25.9 µM
TGI [7]: > 100 µM
GI50 [8]: 16.5 µM
TGI [8]: 35.5 µM
GI50 [9]: 72 µM
TGI [9]: > 100 µM
GI50 [10]: 47.2 µM
TGI [10]: > 100 µM
GI50 [11]: 20.2 µM
TGI [11]: 46.4 µM
GI50 [12]: 41.9 µM
TGI [12]: > 100 µM
GI50 [13]: 30.9 µM
TGI [13]: > 100 µM
GI50 [14]: 27.4 µM
TGI [14]: 83.9 µM
GI50 [15]: 50.7 µM
TGI [15]: > 100 µM
GI50 [16]: 7.48 µM
TGI [16]: 48.3 µM
GI50 [17]: 19.2 µM
TGI [17]: > 100 µM
GI50 [18]: 19.8 µM
TGI [18]: 48.2 µM
GI50 [19]: 27 µM
TGI [19]: > 100 µM
GI50 [20]: 29.1 µM
TGI [20]: > 100 µM
GI50 [21]: 37 µM
TGI [21]: > 100 µM
GI50 [22]: 17.1 µM
TGI [22]: 33.2 µM
GI50 [23]: 22 µM
TGI [23]: 63.8 µM
GI50 [24]: 19.9 µM
TGI [24]: 53.3 µM
GI50 [25]: 18.1 µM
TGI [25]: 81.3 µM
GI50 [26]: 16.9 µM
TGI [26]: 44.4 µM
GI50 [27]: 34.2 µM
TGI [27]: > 100 µM
GI50 [28]: 13.7 µM
TGI [28]: 30.9 µM
GI50 [29]: 17.3 µM
TGI [29]: > 100 µM
GI50 [30]: 17.6 µM
TGI [30]: > 100 µM
GI50 [31]: 37.6 µM
TGI [31]: > 100 µM
GI50 [32]: 36.5 µM
TGI [32]: > 100 µM
GI50 [33]: 51.7 µM
TGI [33]: > 100 µM
GI50 [34]: 53.9 µM
TGI [34]: > 100 µM
GI50 [35]: 37 µM
TGI [35]: > 100 µM
GI50 [36]: 27 µM
TGI [36]: 95.9 µM
GI50 [37]: 59.5 µM
TGI [37]: > 100 µM
GI50 [38]: 24.6 µM
TGI [38]: > 100 µM
GI50 [39]: 11.2 µM
TGI [39]: > 100 µM
GI50 [40]: 10.3 µM
TGI [40]: 45.5 µM
GI50 [41]: 19.9 µM
TGI [41]: > 100 µM
GI50 [42]: 21.1 µM
TGI [42]: 83.7 µM
GI50 [43]: 22.5 µM
TGI [43]: 87.9 µM
GI50 [44]: 15.8 µM
TGI [44]: 30.2 µM
GI50 [45]: 34.1 µM
TGI [45]: > 100 µM
GI50 [46]: 15.9 µM
TGI [46]: 30.1 µM
GI50 [47]: 69.7 µM
TGI [47]: > 100 µM
GI50 [48]: 35.7 µM
TGI [48]: > 100 µM
GI50 [49]: 30 µM
TGI [49]: > 100 µM
GI50 [50]: 18.1 µM
TGI [50]: > 100 µM
GI50 [51]: 46.9 µM
TGI [51]: > 100 µM
GI50 [52]: 21.3 µM
TGI [52]: > 100 µM
GI50 [53]: 54.4 µM
TGI [53]: > 100 µM
GI50 [54]: 24.2 µM
TGI [54]: > 100 µM
GI50 [55]: 20.4 µM
TGI [55]: 54.9 µM
GI50 [56]: 16.4 µM
TGI [56]: 36.4 µM
GI50 [57]: > 100 µM
TGI [57]: > 100 µM
